Measurements taken from patent US20140004079A1, “IN VIVO DENDRITIC CELL T[…]” (Agency for Science, Technology and Research, priority 2012, published 2014).
Entries after “also recorded” stand apart in the source; their conditions may differ.

How the values were obtained:
Type in all cases: cell-based, human
[1] = test system: sorted APC populations from chronic HBV patients; experiment: Ex vivo antigen presentation assay: sorted APCs activated overnight, co-cultured with HBsAg-specific TCR redirected T cells, IFN-γ Elispot; details: for cross-presentation of circulating HBsAg (T cell activation): mDC, CD14 MN, CD16 MN or B cells of chronic HBV patients, short-term activation, HBsAg-specific TCR transduced T cells
Procedure: Sorted APC populations; CD11c DC, CD141 DC, CD123 pDC, CD14 MN, CD16 MN and CD20 B cells were cultured overnight in media alone or under activating conditions +/−[…] recombinant HBsAg (Kindly provided by DynaVax). Cells were activated with 10 μg/ml polyI:C (TLR-3), 5 μM CpG ODN2216 (TLR-9), 1 μg/ml LPS (TLR-4), 5 μg/ml Imiquimod (TLR-7), 1 μg/ml ssRNA40 (TLR-8) (InvivoGen), 1000 U/ml IFN-α or 1000 U/ml IFN-γ (R&D systems). Following overnight incubation, APC populations were thoroughly washed and transferred to anti-IFN-γ coated Elispot plates and co-cultured with CD8 s183-TCR or s171-TCR redirected T cells at 5:1 E:T ratio (normally 5,000 APCs/well but as low as 1000 CD141 DC/well) for 24 h. APCs pulsed with 5 μg/ml HBs183-91(FLLTRILTI), HBs171-80 (FLGPLLVLQA) or HBc18-27 ([…]) peptide served as positive control for T cell activation. IFN-γ Elispot was performed as described previously in Tan et al 2008, using 5 μg/ml of 1-DIK for capture and 0.5 μg/ml 7B6-1-Biotin plus Streptavidin-ALP for detection (Mabtec) (Tan, A. T, Loggi, E., Boni, C., Chia, A. Gehring, A. J., Sastry, K. S., Goh, V., Fisicaro, P., Andreone, P., Brander, C., et al. 2008. Host ethnicity and virus genotype shape the hepatitis B virus-specific T-cell repertoire. J. Virol 82: 10986-10997). Elispot plates were developed and analyzed using CTL Immunospot analyzer. Cutoff values for positive responses were set according to cumulative data from healthy donors and HLA mismatched chronic HBV responses (data not shown). Wells were considered positive if responses were above 20 spot forming units/50,000 T cells.
APC populations were sorted from 7 HLA-A2+ chronic HBV patients or healthy donors to greater than 98% purity. TCR transduced T cells were then cultured at 5:1 effector:target ratio with each APC population (typically 5,000 APC/well for Elispot and 10,000 APC/well for intracellular cytokine staining) and T cell activation was monitored using IFN-γ intracellular cytokine staining or IFN-γ Elispot. For intracellular cytokine staining, cells were co-cultured overnight in V-bottom 96 well plates in 2 μg/ml brefeldin A. Cells were labeled with viability dye, stained with CD8-Horizon V500 (BD Biosciences) and fixed in cytofix/cytoperm (BD Biosciences). Cells were then stained with IFN-γ-Horizon V450 (BD Biosciences) to monitor T cell activation. As positive control, CD14 MN were pulsed with 5 μg/ml HBs183-91 or HBc18-27 peptide for 1 h and washed. IFN-γ Elispot was performed as described previously using 5 μg/ml of 1-DK1 for capture and 0.5 μg/ml 7B6-1-Biotin plus Streptavidin-ALP for detection (Mabtec). Wells were considered positive if responses were above 20 spot forming units/25,000 T cells. An HLA-A2+ healthy donor was included in each experiment to determine the background for each experiment. HLA-A2− donors were also tested to confirm specificity and restriction of the transduced T cells (data not shown).

[2] = test system: CD14 MN from chronic HBV patients; experiment: Cross-presentation of in vivo captured HBsAg by monocyte-derived DC from chronic HBV patients, IFN-γ elispot; details: moDC activated overnight, s183-TCR and s171-TCR CD8 T cells
Procedure: (§1) CD14+ MN were isolated from healthy donors and chronic HBV patients by FACs sorting or positive selection using CD14 micobeads (greater than 90% purity; Miltenyi Biothech). Purified monocytes were then cultured in RPMI 1640 supplemented with 10% heat-inactivated FBS, 20 mM HEPES, 0.5 mM sodium pyruvate. 100 U/ml penicillin, 100 μg/ml streptomycin, MeM amino acids, Glutamax, MeM nonessential amino acids, 55 μM 2-mercaptoethanol (Invitrogen). GM-CSF+IL-4 moDC were made by culturing CD14 MN in 50 ng/ml (1500 U/ml) IL-4 and 50 ng/ml (750 U/ml) GM-CSF (R&D systems) for 6 d. GM-CSF+IL-15 (R&D Systems) moDC were made by culturing CD14 MN in 100 ng/ml (1500 U/ml) GM-CSF+200 ng/ml IL-15. Half of the media was removed after 3 d and replaced with complete RPMI containing cytokines. After 6 d of incubation, moDC were stained with CD14-PerCp (Miltenyi Biotech), HLA-DR alexa700 (eBioscience), CD80-FITC (BD Bioscience) and CD86-APC (Biolegend) to confirm differentiation.
(§2) Six day moDC were cultured overnight in media alone or activated with 10 μg/ml polyI:C or 0.1 ug/ml LPS (Invivogen)+50 ng/ml soluble HEK-derived CD40L (R&D Systems). Following overnight incubation, moDC were washed three times with HBSS and co-cultured at 2:1 effector:target ratio (10,000 T cells:5000 moDC) with CD8 HBs183-91T or HBs171-80-specific TCR redirected T cells for IFN-γ elispot. […]

healthy donor CD14 MN = experiment: Cross-presentation by healthy donor CD14 MN loaded with HBV antigen at day zero and differentiated to moDC, IFN-γ elispot; details: differentiation alone, antigen captured on day zero
Procedure: as §1, §2

“IFN-γ: cytokine, 1000 U/ml for APC activation” was tested, and the “cross-presentation of circulating HBsAg (T cell activation)” value [1] was “T cell activation was not observed”.

With interferon-α [IFN-α] the “cross-presentation of circulating HBsAg (T cell activation)” value [1] was “T cell activation was not observed” and the “activation of HBsAg-specific T cells by activated pDC ex vivo” value ([1]; pDC of chronic HBV patients, in vivo captured HBsAg) was “Neither resting pDC nor pDC activated with a panel of TLR ligands and IFN-α activated HBsAg-specific T cells; also recorded: none of these conditions resulted in HBsAg-specific T cell activation”.

“Polyinosinic-polycytidylic acid [polyI:C, reference compound]” was tested, and the “cross-presentation of exogenously loaded recombinant HBsAg by CD141 DC” value ([1]; CD141 DC loaded with rHBsAg and stimulated) was “efficiently cross-presented recombinant HBsAg”, the “activation of CD8 T cells by activated CD141 DC directly ex vivo” value ([1]; CD141 DC of chronic HBV patients, in vivo captured HBsAg) was “neither non-activated nor polyI:C activated CD141 DC from chronic HBV patients stimulated CDS T cells; also recorded: neither non-activated nor polyI:C activated CD141 DC from chronic HBV patients activated CD8 T cells” and the “effect of moDC activation on T cell response” value [2] was “increase the T cell response”.

“granulocyte-macrophage colony-stimulating factor [GM-CSF]” was tested, and the “cross-presentation of HBV antigen to virus-specific CD8 T cells after differentiation” value (healthy donor CD14 MN; 3 d) was “resulted in cross-presentation of HBV antigen”.

B1: IL-32: cytokine, 100 ng/ml IL-32 for 6 d (protein, UniProt P24001 31-234, looked up)
Interleukin-32: AWVSACDTEDTVGHLGPWRDKDPALWCQLCLSSQHQAIERFYDKMQNAESGRGQVMSSLAELEDDFKEGYLETVAAYYEEQHPELTPLLEKERDGLRCRGNRSPVPDVEDPATEEPGESFCDKVMRWFQAMLQRLQTWWHGVLAWVKEKVVALVHAVQALWKQFQSFCCSLSELFMSSFQSYGAPRGDKEELTPQKCSEPQSSK
With B1 the “cross-presentation of HBV antigen to virus-specific CD8 T cells after differentiation” value (healthy donor CD14 MN; 6 d) was “resulted in cross-presentation of HBV antigen”.
